Test results as given in patent US20210024981A1, “COMPOSITION FOR DETECTING DSRNAS, COMPRISING MEROCYANINE COMPOUND AND ISOMER THEREOF, AND METHOD FOR PROVIDING INFORMATION FOR DIAGNOSING CANCER, BY USING DSRNA EXPRESSION ANALYSIS” (KOREA ADVANCED INSTITUTE OF SCIENCE AND TECHNOLOGY, priority 2018, published 2021).
“Also recorded” adds a separate entry of the source.

Key:
[1] = test system: dsRNA (20 bp poly GC and poly AU); assay: Binding of spiropyran (SP) or merocyanine (MC) and dsRNA, UV-Vis spectrometer; settings: 12 μM solution, 20 bp poly GC and poly AU added, MC after 254 nm UV for 5 minutes
Protocol: The interaction of spiropyran (SP) or merocyanine (MC) with dsRNA was confirmed using a UV-Vis spectrometer. The spiropyran produced in Example 1 was prepared as a spiropyran solution (12 μM), and dsRNA was prepared by ordering 20 bp poly GC and poly AU from Bioneer Co., Ltd., respectively. After adding 200 μM of poly GC and poly AU to the spiropyran solution, spectral results were obtained using a UV-Vis spectrometer. The spiropyran produced in Example 1 was prepared as a spiropyran solution (12 μM), and dsRNA was prepared by ordering 20 bp poly GC and poly AU from Bioneer Co., Ltd., respectively. After irradiating 254 nm UV to the spiropyran solution for 5 minutes, poly GC and poly AU were added, respectively. Then, spectral results were obtained using a UV-Vis spectrometer.

[2] = test system: poly AU and poly GC; assay: Effect of dsRNA on reversibility of SP and MC; format: physicochemical; settings: 200 μM poly AU or poly GC in sodium ion buffer; UV and 420 nm light alternately, 5 cycles at 1 minute intervals
Protocol: The SP and MC in the isomer relationship can be converted reversibly to each other by irradiating UV or visible light. To confirm the effect of dsRNA on the reversibility of SP-MC, SP and 200 μM poly AU and poly GC were added to sodium ion buffer, respectively, and absorbance was measured by alternately irradiating the mixture with UV and 420 nm […] light in 5 cycles at 1 minute intervals. At this time, water was used instead of RNA as the control.

[3] = test system: HeLa cervical cancer cells; assay: dsRNA absorbance change rate after 5-AZA-CdR treatment; format: cell-based; settings: 5-AZA-CdR 500 nM 24 hours, day 5 vs day 0
Protocol: (§1) To compare the expression level of dsRNA between cancer cells and normal cells, total RNA was extracted by treating TRIsure reagents (Bioline) to 3 types of cancer cell lines (HeLa cervical cancer cells, HCT116 colorectal cancer cells and A549 lung cancer cells) and 2 types of normal cell lines (CCD-986sk cells and RPE-1 cells), respectively. The extracted total RNA (30 μg) was treated with RNase T1 (Worthington Inc.) in a volume of 1/10, and incubated at 37° C. for 30 minutes to remove ssRNA and rRNA. Then, dsRNA was purified using a phenol extraction method. The final concentration of the purified dsRNA was adjusted to 350 μM using tertiary distilled water, to which the spiropyran solution (12 μM, dissolved in tertiary distilled water) was added. After irradiating UV to the mixture, the rate of change in absorbance at 512 nm was measured for 2 minutes. The rate of change in absorbance was calculated in comparison with the control group using tertiary distilled water instead of dsRNA.
(§2) HCT116 colorectal cancer cells and HeLa cervical cancer cells were treated with 5-AZA-CdR (500 nM), respectively, and cultured for 24 hours. The medium was replaced with fresh medium and the cells were collected on days 0, 1, 3 and 5 to isolate dsRNA. The rate of change in absorbance of dsRNA in cancer cells was measured in the same manner as described in Experimental Example 9.

[4] = test system: HCT116 colorectal cancer cells; assay: as above; format: cell-based; settings: 5-AZA-CdR 500 nM 24 hours, days 0, 1, 3 and 5
Protocol: as §1, §2

[5] = test system: HCT116 colorectal cancer cells; assay: Apoptosis observed under a microscope; format: cell-based; settings: 5-AZA-CdR 500 nM, day 5
[6] = test system: ERV (THE1B, MTL2B4, MLT1C49 and MER21C) in HCT116 colorectal cancer cells; assay: RT-PCR (qPCR) to confirm ERV expression; format: cell-based; settings: 5-AZA-CdR 500 nM
Protocol: According to a recent study, 5-AZA-CdR has been reported to promote apoptosis by increasing untranslated RNA called ERV (endogenous retroviral element), the dsRNA. Thus, whether the expression of ERV ([…], MTL2B4, MLT1C49 and MER21C genes) was increased by 5-AZA-CdR treatment was investigated.
Total RNA was isolated from the HCT116 colorectal cancer cells treated with 5-AZA-CdR in the same manner as described in Experimental Example <10-1>, to which DNase I was treated, and then cDNA was synthesized using RevertAid reverse transcriptase (Thermo Fisher Scientific). Using the synthesized cDNA as a template, qPCR was performed with the primers in Table 1 below.

[7] = test system: HeLa cervical cancer cells; assay: Apoptosis observed under a microscope; format: cell-based; settings: 5-AZA-CdR 500 nM, day 5
[8] = test system: MCF-7 breast cancer cells; assay: Degree of apoptosis by MTT assay; format: cell-based; settings: 5-AZA-CdR 500 nM
Protocol: (§3) HCT116 colorectal cancer cells, PANC-1 pancreatic cancer cells, MCF-7 breast cancer cells, A549 lung cancer cells and A375 melanoma cells were treated with 5-AZA-CdR in the same manner as described in Experimental Example <10-1>, and the degree of apoptosis was measured by MTT assay.

[9] = test system: A549 lung cancer cells; assay: Degree of apoptosis by MTT assay; format: cell-based; settings: 5-AZA-CdR 500 nM
Protocol: as §3

[10] = test system: A375 melanoma cells; assay: Degree of apoptosis by MTT assay; format: cell-based; settings: 5-AZA-CdR 500 nM
Protocol: as §3

[11] = test system: PANC-1 pancreatic cancer cells; assay: Degree of apoptosis by MTT assay; format: cell-based; settings: 5-AZA-CdR 500 nM
Protocol: as §3

[12] = test system: HCT116 colorectal cancer cells; assay: Degree of apoptosis by MTT assay; format: cell-based; settings: 5-AZA-CdR 500 nM
Protocol: as §3

[13] = test system: MCF-7 breast cancer cells; assay: dsRNA absorbance change rate after 5-AZA-CdR treatment; format: cell-based; settings: 5-AZA-CdR 500 nM, day 7 compared to day 0
Protocol: as §1
(§4) In addition, PANC-1 pancreatic cancer cells, MCF-7 breast cancer cells, A549 lung cancer cells and A375 melanoma cells were treated with 5-AZA-CdR (500 nM), respectively, and cultured for 24 hours. The medium was replaced with fresh medium and the cells were collected on days 0, 1, 3, 5 and 7 to isolate dsRNA. The rate of change in absorbance of dsRNA in cancer cells was measured in the same manner as described in Example 1.

[14] = test system: A549 lung cancer cells; assay: as above; format: cell-based; settings: 5-AZA-CdR 500 nM, days 0-7
Protocol: as §1, §4

[15] = test system: A375 melanoma cells; assay: as above; format: cell-based; settings: 5-AZA-CdR 500 nM, days 0-7
Protocol: as §1, §4

[16] = test system: PANC-1 pancreatic cancer cells; assay: as above; format: cell-based; settings: 5-AZA-CdR 500 nM, day 7 compared to day 0
Protocol: as §1, §4

SMILES | binding to dsRNA (change in UV-Vis absorbance spectrum) [1] | binding to dsRNA (change in UV-Vis absorbance spectrum) ([1]; listed as spiropyran) | reversibility of SP-MC [2] | rate of change in absorbance at 512 nm (dsRNA expression) [3] | rate of change in absorbance at 512 nm (dsRNA expression) [4] | apoptosis [5] | expression level of MER21C, increase compared to day 0 ([6]; day 5) [times] | expression levels of THE1B, MTL2B4, MLT1C49 and MER21C ([6]; days 0 and 1) | expression levels of THE1B, MTL2B4, MLT1C49 and MER21C ([6]; from day 3) | apoptosis [7] | growth decreased compared to untreated control [8] | growth decreased compared to untreated control [9] | growth compared to untreated control [10] | growth decreased compared to untreated control [11] | growth reduced compared to untreated control [12] | dsRNA expression (rate of change in absorbance) [13] | dsRNA expression (rate of change in absorbance) [14] | dsRNA expression (rate of change in absorbance) [15] | dsRNA expression (rate of change in absorbance) [16]
CC1(C)c2ccccc2N(CCC[N+](C)(C)C)C12C=Cc1cc([N+](=O)[O-])ccc1O2 (stereo not shown) [SP, 1′-(3″-trimethylammoniopropyl)-3′,3′-dimethyl-6-nitrospiro[(2H)-1-benzopyran-2,2′-indoline]iodide] | did not bind to dsRNA | not combined with dsRNA | maintained independently from the presence or absence of dsRNA | – | – | – | – | – | – | – | – | – | – | – | – | – | – | – | –
Nc1ncn([C@H]2C[C@H](O)[C@@H](CO)O2)c(=O)n1 [Example 5-AZA-CdR, 5-aza-2′-deoxycytidine] | – | – | – | almost unchanged; also recorded: almost similar to that of day 0 | increased from day 3; also recorded: gradually increased with time | apoptosis induced by 5-AZA-CdR was observed | 100 | almost unchanged | increased; also recorded: began to increase from day 3 | apoptosis was not observed | about 20% | about 10% | not reduced | about 20% | about 40% | slightly increased; also recorded: slight increase | no change; also recorded: little change | no change; also recorded: little change | slightly increased; also recorded: slight increase
